The target of the test is T1, human PAD4 (Homo sapiens, UniProt Q9UM07).
T1 construct: human PAD4 (NM_012387), A2-P663, was PCR amplified; His-SUMO (N, cleaved yes); made in house; host or cells: E. coli BL21(DE3)
T1 sequence (Q9UM07 2-663): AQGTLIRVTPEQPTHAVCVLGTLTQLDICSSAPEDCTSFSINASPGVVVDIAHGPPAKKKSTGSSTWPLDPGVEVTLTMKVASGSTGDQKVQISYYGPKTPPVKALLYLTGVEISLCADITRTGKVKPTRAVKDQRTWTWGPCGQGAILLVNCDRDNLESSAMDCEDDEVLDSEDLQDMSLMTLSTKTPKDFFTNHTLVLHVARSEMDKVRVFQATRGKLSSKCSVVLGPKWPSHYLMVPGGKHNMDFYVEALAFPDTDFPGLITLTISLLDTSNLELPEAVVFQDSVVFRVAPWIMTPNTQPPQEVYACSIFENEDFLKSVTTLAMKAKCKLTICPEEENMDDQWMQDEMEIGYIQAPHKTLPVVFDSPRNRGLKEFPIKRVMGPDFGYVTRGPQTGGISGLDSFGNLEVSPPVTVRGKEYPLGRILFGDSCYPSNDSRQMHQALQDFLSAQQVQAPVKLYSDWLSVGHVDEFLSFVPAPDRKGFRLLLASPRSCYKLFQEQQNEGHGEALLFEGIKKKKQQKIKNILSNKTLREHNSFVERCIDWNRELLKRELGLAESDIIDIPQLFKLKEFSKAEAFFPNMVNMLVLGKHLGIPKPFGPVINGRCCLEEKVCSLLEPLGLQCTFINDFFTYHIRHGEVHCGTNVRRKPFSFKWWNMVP
Briefly: In vitro PAD4 BAEE biochemical assay. Particulars: BAEE substrate 3 mM, 5 nM PAD4, 2 mM calcium chloride; geometric mean of multiple experiments. In short, it runs like this: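 Assay was run at 25 °C using 3 mM BAEE and 5 nM human PAD4 after a 30 min compound preincubation; ammonia produced over 2 h was quantified by OPA-derived fluorescence. Full inhibition was defined by 50 µM BB-Cl-Amidine, and IC50 came from variable-slope nonlinear regression.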
The term IC50 denotes the concentration needed to halve the response being measured. Take `C[C@H]1NC(=O)[C@H]2[C@@H](CCCC(F)(F)Cn3c(-c4nc5cc(C(=O)N[C@H]6CNCC[C@@H]6F)c(F)cc5n4C4CC4)cc4ccc1nc43)C2(F)F` [Example 389, 1-cyclopropyl-6-fluoro-~{N}-[(3~{S},4~{S})-4-fluoro-3-piperidyl]-2-[(2~{R},5~{R},7~{R})-6,6,11,11-tetrafluoro-2-methyl-4-oxo-3,13,19-triazatetracyclo[11.5.2.0^{5,7}.0^{16,20}]icosa-1(19),14,16(20),17-tetraen-14-yl]benzimidazole-5-carboxamide]: the 50% inhibitory concentration (IC50) worked out at 0.031 µM.

For the compound `C[C@H]1NC(=O)[C@@H]2[C@@H](CCCC(F)(F)Cn3c(-c4nc5cc(C(=O)N[C@H]6CNCC[C@@H]6F)c(F)cc5n4C4CC4)cc4ccc1nc43)C2(F)F` [Example 390, 1-cyclopropyl-6-fluoro-~{N}-[(3~{S},4~{S})-4-fluoro-3-piperidyl]-2-[(2~{R},5~{S},7~{R})-6,6,11,11-tetrafluoro-2-methyl-4-oxo-3,13,19-triazatetracyclo[11.5.2.0^{5,7}.0^{16,20}]icosa-1(19),14,16(20),17-tetraen-14-yl]benzimidazole-5-carboxamide], the IC50 amounted to 0.088 µM. Take `C[C@H]1NC(=O)[C@H]2[C@H](CCCC(F)(F)Cn3c(-c4nc5cc(C(=O)N[C@H]6CNCC[C@@H]6F)c(F)cc5n4C4CC4)cc4ccc1nc43)C2(F)F` [Example 391, 1-cyclopropyl-6-fluoro-~{N}-[(3~{S},4~{S})-4-fluoro-3-piperidyl]-2-[(2~{R},5~{R},7~{S})-6,6,11,11-tetrafluoro-2-methyl-4-oxo-3,13,19-triazatetracyclo[11.5.2.0^{5,7}.0^{16,20}]icosa-1(19),14,16(20),17-tetraen-14-yl]benzimidazole-5-carboxamide]: the half-maximal inhibitory concentration (IC50) stood at 0.034 µM.

For `C[C@H]1NC(=O)[C@H]2[C@@H](CCCCCn3c(-c4nc5cc(C(=O)N[C@H]6CNCC[C@@H]6F)c(F)cc5n4C4CC4)cc4ccc1nc43)C2(F)F` [Example 392, 1-cyclopropyl-2-[(2~{R},5~{R},7~{R})-6,6-difluoro-2-methyl-4-oxo-3,13,19-triazatetracyclo[11.5.2.0^{5,7}.0^{16,20}]icosa-1(19),14,16(20),17-tetraen-14-yl]-6-fluoro-~{N}-[(3~{S},4~{S})-4-fluoro-3-piperidyl]benzimidazole-5-carboxamide], the IC50 was 0.022 µM. For the compound `C[C@H]1NC(=O)[C@@H]2[C@@H](CCCCCn3c(-c4nc5cc(C(=O)N[C@H]6CNCC[C@@H]6F)c(F)cc5n4C4CC4)cc4ccc1nc43)C2(F)F` [Example 393, 1-cyclopropyl-2-[(2~{R},5~{S},7~{R})-6,6-difluoro-2-methyl-4-oxo-3,13,19-triazatetracyclo[11.5.2.0^{5,7}.0^{16,20}]icosa-1(19),14,16(20),17-tetraen-14-yl]-6-fluoro-~{N}-[(3~{S},4~{S})-4-fluoro-3-piperidyl]benzimidazole-5-carboxamide], the IC50 came to 0.063 µM. For `C[C@H]1NC(=O)[C@H]2[C@H](CCCCCn3c(-c4nc5cc(C(=O)N[C@H]6CNCC[C@@H]6F)c(F)cc5n4C4CC4)cc4ccc1nc43)C2(F)F` [Example 394, 1-cyclopropyl-2-[(2~{R},5~{R},7~{S})-6,6-difluoro-2-methyl-4-oxo-3,13,19-triazatetracyclo[11.5.2.0^{5,7}.0^{16,20}]icosa-1(19),14,16(20),17-tetraen-14-yl]-6-fluoro-~{N}-[(3~{S},4~{S})-4-fluoro-3-piperidyl]benzimidazole-5-carboxamide], the IC50 was 0.023 µM. Regarding `Cc1cncc2c1C(=O)N[C@H](C)c1ccc3cc(-c4nc5cc(C(=O)N[C@H]6CNCC[C@@H]6F)c(F)cc5n4C4CC4)n(c3n1)CCCCC2` [Example 395, 1-cyclopropyl-2-[(2~{R})-2,6-dimethyl-4-oxo-3,8,16,22-tetrazatetracyclo[14.5.2.0^{5,10}.0^{19,23}]tricosa-1(22),5(10),6,8,17,19(23),20-heptaen-17-yl]-6-fluoro-~{N}-[(3~{S},4~{S})-4-fluoro-3-piperidyl]benzimidazole-5-carboxamide], the IC50 amounted to 0.029 µM.

As for `Cc1nccc2c1C(=O)N[C@H](C)c1ccc3cc(-c4nc5cc(C(=O)N[C@H]6CNCC[C@@H]6F)c(F)cc5n4C4CC4)n(c3n1)CCCCC2` [Example 396, 1-cyclopropyl-2-[(2~{R})-2,6-dimethyl-4-oxo-3,7,16,22-tetrazatetracyclo[14.5.2.0^{5,10}.0^{19,23}]tricosa-1(22),5(10),6,8,17,19(23),20-heptaen-17-yl]-6-fluoro-~{N}-[(3~{S},4~{S})-4-fluoro-3-piperidyl]benzimidazole-5-carboxamide], the IC50 turned out to be 0.017 µM. `COc1cc(C(=O)N2CC[C@@H](OC)[C@@H](N)C2)cc2nc(-c3cc4ccc5nc4n3CCCCCc3cccc(C(F)F)c3C(=O)N[C@@H]5C)n(C)c12` [Example 397, (2~{R})-17-[5-[(3~{S},4~{R})-3-amino-4-methoxy-piperidine-1-carbonyl]-7-methoxy-1-methyl-benzimidazol-2-yl]-6-(difluoromethyl)-2-methyl-3,16,22-triazatetracyclo[14.5.2.0^{5,10}.0^{19,23}] tricosa-1(22),5(10),6,8,17,19(23),20-heptaen-4-one]: the IC50 amounted to 0.091 µM.

On to `COc1cc(C(=O)N[C@H]2CNCC[C@@H]2F)cc2nc(-c3cc4ccc5nc4n3CCCCCc3c(noc3C)C(=O)N[C@@H]5C)n(C)c12` [Example 398, 2-[(2~{R})-2,8-dimethyl-4-oxo-7-oxa-3,6,15,21-tetrazatetracyclo[13.5.2.0^{5,9}.0^{18,22}]docosa-1(21),5,8,16,18(22),19-hexaen-16-yl]-~{N}-[(3~{S},4~{S})-4-fluoro-3-piperidyl]-7-methoxy-1-methyl-benzimidazole-5-carboxamide], for which the IC50 was determined as 0.074 µM. Turning to `COc1cc(C(=O)N[C@H]2CNCC[C@@H]2F)cc2nc(-c3cc4ccc5nc4n3CCC/C=C/c3c(noc3C)C(=O)N[C@@H]5C)n(C)c12` [Example 399, 2-[(2~{R},10~{E})-2,8-dimethyl-4-oxo-7-oxa-3,6,15,21-tetrazatetracyclo[13.5.2.0^{5,9}.0^{18,22}]docosa-1(21),5,8,10,16,18(22),19-heptaen-16-yl]-~{N}-[(3~{S},4~{S})-4-fluoro-3-piperidyl]-7-methoxy-1-methyl-benzimidazole-5-carboxamide], the IC50 worked out at 0.086 µM. For `COc1cc(C(=O)N[C@H]2CNCC[C@@H]2F)cc2nc(-c3cc4ccc5nc4n3CCCCCCC3(CC(F)(F)C3)C(=O)N[C@@H]5C)n(C)c12` [Example 400, 2-[(11~{R})-1′,1′-difluoro-11-methyl-9-oxo-spiro[1,10,19-triazatricyclo[10.5.2.0^{15,18}]nonadeca-12(19),13,15(18),16-tetraene-8,3′-cyclobutane]-17-yl]-~{N}-[(3~{S},4~{S})-4-fluoro-3-piperidyl]-7-methoxy-1-methyl-benzimidazole-5-carboxamide] the value was 0.15 µM; for `C[C@H]1NC(=O)c2cccnc2CCCCCn2c(-c3nc4cc(C(=O)N[C@H]5CNCC[C@@H]5F)c(F)cc4n3C)cc3ccc1nc32` [Example 401, 6-fluoro-~{N}-[(3~{S},4~{S})-4-fluoro-3-piperidyl]-1-methyl-2-[(2~{R})-2-methyl-4-oxo-3,9,16,22-tetrazatetracyclo[14.5.2.0^{5,10).0^{19,23}]tricosa-1(22),5(10),6,8,17,19(23),20-heptaen-17-yl]benzimidazole-5-carboxamide], 0.09 µM; for `C[C@H]1NC(=O)C2(CCCCCCn3c(-c4nc5cc(C(=O)N[C@H]6CNCC[C@@H]6F)c(F)cc5n4C)cc4ccc1nc43)CC(F)(F)C2` [Example 402, 2-[(11~{R})-1′,1′-difluoro-11-methyl-9-oxo-spiro[1,10,19-triazatricyclo[10.5.2.0^{15,18}]nonadeca-12(19),13,15(18),16-tetraene-8,3′-cyclobutane]-17-yl]-6-fluoro-~{N}-[(3~{S},4~{S})-4-fluoro-3-piperidyl]-1-methyl-benzimidazole-5-carboxamide], 0.091 µM. Turning to `COC1(Cn2c(-c3cc4ccc5nc4n3CCCCC[C@@H]3C[C@H]3C(=O)N[C@@H]5C)nc3cc(C(=O)N[C@H]4CNCC[C@@H]4F)c(F)cc32)CC1` [Example 404, 6-fluoro-~{N}-[(3~{S},4~{S})-4-fluoro-3-piperidyl]-1-[(1-methoxycyclopropyl)methyl]-2-[(2~{R},5~{R},7~{R})-2-methyl-4-oxo-3,13,19-triazatetracyclo[11.5.2.0^{5,7}.0^{16,20}]icosa-1(19),14,16(20),17-tetraen-14-yl]benzimidazole-5-carboxamide], the IC50 stood at 0.083 µM. Consider `C[C@H]1NC(=O)[C@@H]2C[C@H]2CCCCCn2c(-c3nc4cc(C(=O)N[C@H]5CNCC[C@@H]5F)c(F)cc4n3CC3(F)CC3)cc3ccc1nc32` [Example 405, 6-fluoro-1-[(1-fluorocyclopropyl)methyl]-~{N}-[(3~{S},4~{S})-4-fluoro-3-piperidyl]-2-[(2~{R},5~{R},7~{R})-2-methyl-4-oxo-3,13,19-triazatetracyclo[11.5.2.0^{5,7}.0^{16,20}]icosa-1(19),14,16(20),17-tetraen-14-yl]benzimidazole-5-carboxamide], for which the half-maximal inhibitory concentration (IC50) was 0.027 µM. Turning to `C[C@H]1NC(=O)[C@@H]2C[C@H]2CCCCCn2c(-c3nc4cc(C(=O)N[C@H]5CNCC[C@@H]5F)c(F)cc4n3CC3(C#N)CC3)cc3ccc1nc32` [Example 406, 1-[(1-cyanocyclopropyl)methyl]-6-fluoro-~{N}-[(3~{S},4~{S})-4-fluoro-3-piperidyl]-2-[(2~{R},5~{R},7~{R})-2-methyl-4-oxo-3,13,19-triazatetracyclo[11.5.2.0^{5,7}.0^{16,20}]icosa-1(19),14,16(20),17-tetraen-14-yl]benzimidazole-5-carboxamide], the IC50 was 0.022 µM.

The values are drawn from patent publication US11976083B2, “Inhibitors of peptidylarginine deiminases” (Gilead Sciences, Inc., priority 2020, dated 2024).
